The results in this text go back to PMC5889666 (Proceedings of the National Academy of Sciences of the …, 2018).

Data set [1] addresses T1, FadD (Escherichia coli, UniProt P69451).
T1 sequence (P69451 1-561): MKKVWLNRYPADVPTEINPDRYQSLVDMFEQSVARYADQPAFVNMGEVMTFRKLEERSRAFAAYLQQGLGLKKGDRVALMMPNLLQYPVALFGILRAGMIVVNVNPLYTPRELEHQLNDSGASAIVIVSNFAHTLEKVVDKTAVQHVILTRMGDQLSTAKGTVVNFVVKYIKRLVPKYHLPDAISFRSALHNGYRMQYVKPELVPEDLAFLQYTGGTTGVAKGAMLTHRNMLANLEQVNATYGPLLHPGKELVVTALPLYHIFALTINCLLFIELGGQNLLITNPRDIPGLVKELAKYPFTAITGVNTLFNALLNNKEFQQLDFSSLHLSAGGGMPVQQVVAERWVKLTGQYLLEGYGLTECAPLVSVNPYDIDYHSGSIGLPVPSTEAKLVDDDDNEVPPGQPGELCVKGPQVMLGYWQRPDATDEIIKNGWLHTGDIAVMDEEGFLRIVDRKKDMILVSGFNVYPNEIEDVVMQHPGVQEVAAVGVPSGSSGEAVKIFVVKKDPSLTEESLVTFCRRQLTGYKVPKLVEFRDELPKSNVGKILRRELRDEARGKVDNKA
Kind of data set: in vitro acyl-CoA synthesis, product by LC-MS. Type of data set: biochemical.

Data set [2] deals with T2, PlsB (Escherichia coli, UniProt P0A7A7).
T2 sequence (P0A7A7 2-807): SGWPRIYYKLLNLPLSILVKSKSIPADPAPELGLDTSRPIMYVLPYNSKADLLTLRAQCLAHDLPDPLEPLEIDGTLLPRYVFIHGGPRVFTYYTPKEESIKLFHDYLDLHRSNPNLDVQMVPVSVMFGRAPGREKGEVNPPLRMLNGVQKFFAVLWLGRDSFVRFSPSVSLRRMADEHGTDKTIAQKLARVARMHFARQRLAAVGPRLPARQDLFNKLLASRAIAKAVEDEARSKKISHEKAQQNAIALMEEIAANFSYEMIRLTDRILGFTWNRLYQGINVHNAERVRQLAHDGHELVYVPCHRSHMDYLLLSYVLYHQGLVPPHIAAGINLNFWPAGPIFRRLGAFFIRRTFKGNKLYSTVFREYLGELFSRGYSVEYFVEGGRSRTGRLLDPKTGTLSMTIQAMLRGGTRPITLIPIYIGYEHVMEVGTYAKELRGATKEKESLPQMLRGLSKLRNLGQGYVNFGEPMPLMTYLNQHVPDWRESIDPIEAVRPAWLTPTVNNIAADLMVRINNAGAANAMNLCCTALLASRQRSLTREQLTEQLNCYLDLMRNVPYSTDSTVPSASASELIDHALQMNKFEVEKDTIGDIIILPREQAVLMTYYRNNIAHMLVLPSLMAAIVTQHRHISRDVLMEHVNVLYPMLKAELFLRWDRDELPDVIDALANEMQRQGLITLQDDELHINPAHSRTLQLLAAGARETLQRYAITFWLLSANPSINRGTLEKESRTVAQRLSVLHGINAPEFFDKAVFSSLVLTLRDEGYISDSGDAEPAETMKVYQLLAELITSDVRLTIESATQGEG
Kind of data set: in vitro lyso-phosphatidic acid synthesis, product by LC-MS. Type of data set: biochemical. The conditions noted are these: co-substrate acyl-CoA made from oleic acid and CoA by FadD.

Substrate in data set [3]: O=P(O)(O)OC[C@H](O)CO
The data set can be described thus: purified protein. To be noted: co-substrate GGPP.

Substrate in data set [4]: O=P(O)(O)OC[C@@H](O)CO
Kind of data set: purified protein. The conditions noted are these: co-substrate GGPP.

In the case of `CC(C)(COP(=O)(O)OP(=O)(O)OC[C@H]1O[C@@H](n2cnc3c(N)ncnc32)[C@H](O)[C@@H]1OP(=O)(O)O)[C@@H](O)C(=O)NCCC(=O)NCCS` [CoA], the “in vitro acyl-CoA synthesis, product by LC-MS” value in data set [1] (co-substrate oleic acid) was “in vitro condensation of oleic acid and CoA to yield acyl-CoA”.

On to `O=P(O)(O)OC[C@H](O)CO` [G3P], for which the “in vitro lyso-phosphatidic acid synthesis, product by LC-MS” value in data set [2] is “LPA synthesis was observed only in the presence of G3P”.

`CCCCCCCC/C=C\CCCCCCCC(=O)O` [oleic acid]: the “in vitro acyl-CoA synthesis, product by LC-MS” value in data set [1] (co-substrate CoA) was “in vitro condensation of oleic acid and CoA to yield acyl-CoA”.

B1: GGGPS (Methanococcus maripaludis S2) (protein)
chain: MQIKIGEIESKLNKIIEEEGAAYFVLIDPDEKNYREIANHVKDYADAIIIGGSIGIINLDEVTKDIKEITGLPIILFPGNVDGVTKEADAVFFMSLMNSKNTYWNMTAPTLGALTIKKYGLETLPMAYLGIEPISKTAVGFVGEVNEIPQKKPEIAGLYSLSASYFGMRWAYLEAGSGAEYPVSNEMVGISKKLSGINIIVGGGIRTPEVAYEKVMSGADVIVTGTLTEKDPQAVVEMKKAIKKAGLDKLKMLSKK
In the case of B1, the Km – broadly, the substrate concentration at which the rate is half of its maximum – in data set [3] worked out at 46.7 ± 6 µM; in data set [4], 5.8 ± 1.6 µM.
